Results reported in ChEMBL document CHEMBL1201862, “PubChem BioAssay data set” (2004).
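Exposure lasted 48 hours, with cells grown in 96-well plates and compounds tested at five concentrations. At the GI50, growth is halved.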 Activity calls are given as the source filed them. Rule as the data show it: active = GI50 up to about 1.1 µM and inactive = higher.

What was measured:
Test in all cases: NCI tumour cell line growth inhibition, 48 h
U-251 = tested on: U-251
OVCAR-8 = tested on: OVCAR-8
SF-539 = tested on: SF-539
SF-268 = tested on: SF-268
LOX IMVI = tested on: LOX IMVI
NCI-H226 = tested on: NCI-H226
UACC-62 = tested on: UACC-62
K562 = tested on: K562
SK-MEL-28 = tested on: SK-MEL-28
PC-3 = tested on: PC-3
HCT-15 = tested on: HCT-15
SNB-75 = tested on: SNB-75
SK-OV-3 = tested on: SK-OV-3
SNB-19 = tested on: SNB-19
MDA-MB-231 = tested on: MDA-MB-231
HOP-92 = tested on: HOP-92
RPMI-8226 = tested on: RPMI-8226
A498 = tested on: A498
DU-145 = tested on: DU-145

Row | Structure (SMILES) | GI50 (U-251) | GI50 (OVCAR-8) | GI50 (SF-539) | GI50 (SF-268) | GI50 (LOX IMVI) | GI50 (NCI-H226) | GI50 (UACC-62) | GI50 (K562) | GI50 (SK-MEL-28) | GI50 (PC-3) | GI50 (HCT-15) [µM] | GI50 (SNB-75) | GI50 (SK-OV-3) | GI50 (SNB-19) | GI50 (MDA-MB-231) | GI50 (HOP-92) | GI50 (RPMI-8226) | GI50 (A498) | GI50 (DU-145)
1 | O=c1c(S(=O)(=O)Oc2ccccc2)coc2cc(F)ccc12 | > 100 µM (inactive) | > 100 µM (inactive) | > 100 µM (inactive) | > 100 µM (inactive) | > 100 µM (inactive) | 17.4 µM (inactive) | 60 µM (inactive) | > 100 µM (inactive) | > 100 µM (inactive) | > 100 µM (inactive) | > 100 | 30.9 µM (inactive) | > 100 µM (inactive) | > 100 µM (inactive) | > 100 µM (inactive) |  |  |  | 
2 | O=C(NCC(=O)N1CCOC1=O)OCc1ccccc1 | > 100 µM (inactive) | > 100 µM (inactive) | > 100 µM (inactive) | > 100 µM (inactive) | > 100 µM (inactive) | > 100 µM (inactive) | > 100 µM (inactive) | > 100 µM (inactive) | > 100 µM (inactive) |  | > 100 | > 100 µM (inactive) | > 100 µM (inactive) | > 100 µM (inactive) |  | > 100 µM (inactive) | > 100 µM (inactive) | > 100 µM (inactive) | 
3 | CCC(=O)N1C(=O)C(CC)(CC)C(=O)N1C(=O)CC | > 100 µM (inactive) | > 100 µM (inactive) |  | > 100 µM (inactive) |  | > 100 µM (inactive) | > 100 µM (inactive) | > 100 µM (inactive) | > 100 µM (inactive) | > 100 µM (inactive) | > 100 | > 100 µM (inactive) | > 100 µM (inactive) | > 100 µM (inactive) | > 100 µM (inactive) |  | > 100 µM (inactive) |  | > 100 µM (inactive)
4 | CCOC(=O)c1c(SC(=O)C(C)(C)Oc2ccc(Cl)cc2)n(-c2ccccc2)c(=S)n(-c2ccccc2)c1=O | 19.6 µM (inactive) | 19.6 µM (inactive) | 22.9 µM (inactive) | 20.2 µM (inactive) | 31.8 µM (inactive) | 40 µM (inactive) | 67.8 µM (inactive) | 30.8 µM (inactive) | 62.5 µM (inactive) |  | 60.4 | 51.4 µM (inactive) | 45.6 µM (inactive) | 31.6 µM (inactive) | 26.6 µM (inactive) | 35.6 µM (inactive) |  | 52.7 µM (inactive) | 45.2 µM (inactive)
5 | Cc1cccc(/C=C2/C(=O)Nc3ccccc32)n1 | 15.7 µM (inactive) | 23.3 µM (inactive) | 20.5 µM (inactive) | 14.7 µM (inactive) |  |  |  | 9.98 µM (inactive) | 24.2 µM (inactive) | 16.7 µM (inactive) | 13.3 | 28.8 µM (inactive) | 18.1 µM (inactive) | 23.7 µM (inactive) |  | 7.82 µM (inactive) | 14.7 µM (inactive) | 21.3 µM (inactive) | 13.2 µM (inactive)
6 | NC(=O)c1cccc(OCC(O)CO)c1 (stereo not drawn) | > 100 µM (inactive) | > 100 µM (inactive) | > 100 µM (inactive) | > 100 µM (inactive) |  | > 100 µM (inactive) | > 100 µM (inactive) | > 100 µM (inactive) | > 100 µM (inactive) | > 100 µM (inactive) | > 100 | > 100 µM (inactive) | > 100 µM (inactive) | > 100 µM (inactive) | > 100 µM (inactive) |  |  | > 100 µM (inactive) | > 100 µM (inactive)
7 | COc1ccc2oc(OC)c(CC=C(C)C)c(=O)c2c1C | > 100 µM (inactive) | > 100 µM (inactive) | > 100 µM (inactive) | > 100 µM (inactive) | > 100 µM (inactive) | > 100 µM (inactive) | > 100 µM (inactive) | > 100 µM (inactive) | > 100 µM (inactive) | > 100 µM (inactive) | > 100 | > 100 µM (inactive) | > 100 µM (inactive) | > 100 µM (inactive) | > 100 µM (inactive) |  | > 100 µM (inactive) | > 100 µM (inactive) | > 100 µM (inactive)
8 | CN(C)CCNc1nc2c(c(=O)n(C)c(=O)n2C)n1C | > 100 µM (inactive) | > 100 µM (inactive) | > 100 µM (inactive) | > 100 µM (inactive) | > 100 µM (inactive) | > 100 µM (inactive) | > 100 µM (inactive) | > 100 µM (inactive) | > 100 µM (inactive) |  | > 100 |  | > 100 µM (inactive) | > 100 µM (inactive) | > 100 µM (inactive) | > 100 µM (inactive) | > 100 µM (inactive) | > 100 µM (inactive) | > 100 µM (inactive)
9 | N#Cc1c(-c2ccc([N+](=O)[O-])cc2)c(C#N)c(=O)n(NS(=O)(=O)c2ccccc2)c1-c1ccccc1 | > 100 µM (inactive) | > 100 µM (inactive) | > 100 µM (inactive) | > 100 µM (inactive) | > 100 µM (inactive) | > 100 µM (inactive) | > 100 µM (inactive) | > 100 µM (inactive) | > 100 µM (inactive) | > 100 µM (inactive) | > 100 | > 100 µM (inactive) | > 100 µM (inactive) | > 100 µM (inactive) | > 100 µM (inactive) | > 100 µM (inactive) | > 100 µM (inactive) | > 100 µM (inactive) | 
10 | Cc1ccc(/N=N/c2c(C)c(C#N)c(=S)n(C3OC(CO)C(O)C(O)C3O)c2-c2ccccc2)cc1 (stereo not drawn) | 14.4 µM (inactive) |  | 28.5 µM (inactive) | 26.7 µM (inactive) | 17.2 µM (inactive) |  | 14.5 µM (inactive) | 8.13 µM (inactive) | 16.5 µM (inactive) | 15 µM (inactive) | 21.9 | 20.1 µM (inactive) | 34.1 µM (inactive) | 19.6 µM (inactive) | 40 µM (inactive) |  | 28.9 µM (inactive) | 0.74 µM (active) | 38.6 µM (inactive)
11 | O=C1OC(c2ccccc2)=N/C1=C\c1ccc2ccccc2c1 | > 100 µM (inactive) | > 100 µM (inactive) | > 100 µM (inactive) | > 100 µM (inactive) | > 100 µM (inactive) |  | > 100 µM (inactive) | > 100 µM (inactive) | > 100 µM (inactive) |  | > 100 | > 100 µM (inactive) | > 100 µM (inactive) | > 100 µM (inactive) |  | > 100 µM (inactive) | > 100 µM (inactive) | > 100 µM (inactive) | 
12 | CN1CCN(C(=S)N(C)C(=O)c2ccco2)CC1 | > 100 µM (inactive) | > 100 µM (inactive) |  |  | > 100 µM (inactive) | > 100 µM (inactive) | > 100 µM (inactive) | > 100 µM (inactive) |  |  | > 100 |  |  | > 100 µM (inactive) | > 100 µM (inactive) | > 100 µM (inactive) | > 100 µM (inactive) |  | > 100 µM (inactive)
13 | CCNCCNc1c2ccccc2nc2ccccc12 |  | 1.81 µM (inactive) | 0.745 µM (active) | 1.35 µM (inactive) | 0.743 µM (active) |  | 1.49 µM (inactive) | 0.551 µM (active) |  | 0.828 µM (active) | 1.48 | 1.53 µM (inactive) | 1.07 µM (active) | 1.01 µM (active) | 1.24 µM (inactive) |  |  |  | 1.62 µM (inactive)
